Assay results published in publication PMC10052035, “Virtual Screening, Structural Analysis, and Formation Thermodynamics of Carbamazepine Cocrystals” (Pharmaceutics, 2023).

Experiments:
[1] = Solubility of cocrystals and their constituents in organic solvents (shake-flask, HPLC); details: for Ccc,3AcAmBA∙10^2, coformer concentration in equilibrium with cocrystal / Ccc,CBZ∙10^2, CBZ concentration in equilibrium with cocrystal / Ccc,4AcAmBA∙10^2, coformer concentration in equilibrium with cocrystal: value is C∙10^2
Description: For the [CBZ + 3AcAmBA] (1:1) cocrystal, methanol was used. For [CBZ + 4AcAmBA] (1:1), all the experiments were performed in acetonitrile. An excess of the solid was placed in an Eppendorf tube, and 2 mL of solvent was added. The resulting suspension was shaken in a ThermoMixer C (Eppendorf, Hamburg, Germany) at 800 rpm for 48 h at the specified temperature. Subsequently, the saturated solution was separated using a 0.22 μm PTEF filter, diluted, and analyzed using HPLC. The solid phases after the experiment were collected and characterized by PXRD. Each experiment was repeated three times.
The HPLC was performed on an LC-20 AD Shimadzu Prominence model (Shimadzu, Kyoto, Japan) equipped with a PDA detector and a Luna C-18 column (150 mm × 4.6 mm i.d., 5 μm particle size, and 100 Å pore size). The column temperature was set to 40 °C. To achieve the proper separation of the cocrystal components, different ratios of the mobile phase, consisting of acetonitrile and a 0.1% aqueous solution of trifluoroacetic acid (35:65 v/v), were used. The flow rate was 1.0 mL·min^−1, and the injection volume was 20 μL. The UV detection of carbamazepine, 2-acetamidobenzoic acid, 3-acetamidobenzoic acid, and 4-acetamidobenzoic acid was carried out at the wavelengths of 285 nm, 249 nm, 220 nm, and 266 nm, respectively.

[2] = parameters: method as in doi:10.1016/j.molliq.2021.118320; details: pH 2.0, 310.2 K; value belongs to the coformer of the cocrystal named in the row; ref [103]; cited from earlier work
[3] = assay type: physicochemical; details: for Scc, solubility of the cocrystal: pH 2; for [CF]eu, eutectic concentration of coformer / [CBZ]eu, eutectic concentration of CBZ / Keu, eutectic constant: pH 2.0, 310.2 K; for [CF]eu, eutectic concentration of coformer: eutectic point; for [CBZ]eu, eutectic concentration of CBZ: eutectic point (drug and cocrystal in equilibrium with solution); for Keu, eutectic constant: Keu = [CF]eu/[CBZ]eu
Description: The saturation shake-flask method was used to measure the aqueous solubility of the CBZ cocrystals in a pH 2.0 buffer solution at the eutectic point, where drug and cocrystal are in equilibrium with the solution. The eutectic point between the cocrystal and the drug was reached by suspending 80 mg of the cocrystal and 30 mg of CBZ in 2 mL of the buffer solution. The obtained suspension was stirred continuously for 72 h at 37.0 ± 0.1 °C. After equilibration, the final pH of the solution was measured. The suspension was diluted with the mobile phase after being filtered through a […] PTEF filter. Concentrations of compounds were analyzed by HPLC. The solid phases after the experiment were characterized by PXRD.
The column temperature was set to 40 °C.

[4] = Preliminary solution stability (congruent/incongruent dissolution) in organic solvents, PXRD of residual phases; assay type: physicochemical
Source text: The most convenient way to determine the solubility product of a cocrystal is to ensure that the solution and the cocrystal are at thermodynamic equilibrium, i.e., that the cocrystal is congruently soluble in the chosen solvent. In this work, acetonitrile was primarily utilized as a medium to carry out solubility experiments. […] (1:1) and [CBZ + 3AcAmBA] […] In the case of [CBZ + 3AcAmBA] (1:1), incongruent solubility of the cocrystal was expected given the high solubility ratio of the components in acetonitrile (Table S6). This is likely to result in an asymmetric ternary phase diagram with a narrow stability region for the [CBZ + 3AcAmBA] (1:1) cocrystal. […] It is reasonable to assume that the poor solution stability of the [CBZ + 2AcAmBA] (1:1) cocrystal is not due to the large solubility difference between CBZ and 2AcAmBA but rather because of the low intrinsic thermodynamic stability of the binary solid form caused by the lack of energy gain associated with cocrystal formation, which leads to a higher solubility in all solvents considered. […] (1:1) cocrystal compared to the parent pure components (~40 °C, Figure S2), implicitly corroborate this supposition. Since no suitable solvent for solubility studies of [CBZ + 2AcAmBA] (1:1) could be found, this system was not further explored. The [CBZ + 3AcAmBA]

[5] = Cocrystal formation thermodynamics from solubility data (Kf, ΔformG, ΔformH, ΔformS); assay type: physicochemical; details: for ΔformH: van't Hoff, 293.15-313.15 K
Source text: It is known that the relative stability of a cocrystal with respect to a physical mixture of the parent constituents at a given temperature can be quantitatively expressed in terms of the free-energy change, ΔformG, of the cocrystallization reaction. Analyzing the temperature dependence of the Gibbs formation energy can provide further information on the enthalpy and entropy contributions to the driving force of the process as well as help to estimate the thermodynamic transition temperature, which determines the stability domains of a cocrystal and its individual constituents. The experimental assessment of ΔformG is based on solubility data for the starting molecules and the corresponding cocrystal in the same solvent at a predetermined temperature using the equation below:(3) ΔformG=−RTlnap,Ax×ap,By/acc,Ax×acc,By=−RTlnap,Ax×ap,By/Ksp=−RTlnKf, where ap,A and ap,B represent the activities of pure A and B compounds in a saturated solution; acc,A and acc,B are the activities of the cocrystal components in a solution, in equilibrium with pure cocrystal; Ksp is the solubility product of a cocrystal; T is the temperature; x and y are the stoichiometric coefficients; and Kf is an equilibrium constant at the experimental temperature.
Using the van’t Hoff expression, the enthalpy of the cocrystallization process, ΔformH, may be estimated by evaluating the Kf values at various temperatures (assuming that ΔformH is a constant within the selected temperature range):(4) dlnKf/d(1/T)=−ΔformH/R
The entropy of cocrystal formation, ΔformS, can be estimated from (5) ΔformS=ΔformH−ΔformG/T
Even though the activities in Equation (3) are usually approximated by the corresponding molar concentration while neglecting the activity coefficients, a more valid approximation implies that the activity coefficients for the two solute species are constant along the cocrystal solubility line and equal to the activity coefficients of the pure components in the saturated solutions in the same solvent and temperature. […] Table S5 contains the solubility values of CBZ, coformers, and the CBZ cocrystals with emodin, paeonol, nicotinamide, and glutaric acid in various organic solvents.

[6] = 298.2K, listed as [CBZ+3AcAmBA] (1:1)
[7] = 298.2K, listed as [CBZ+4AcAmBA] (1:1)

In the case of `CC(=O)Nc1ccccc1C(=O)O` [Cocrystal 2AcAmBA, 2-acetamidobenzoic acid], the “solubility ratio Cp,CBZ/Cp,coformer” value ([1]; Acetonitrile, Table S6) is given as 5.7, the solubility at 48 h ([1]; acetonitrile, 20 °C, organic solvent or mixture, thermodynamic from solid) is given as 25 ± 0.8 mM and the “S0(CF), intrinsic solubility of coformer” value [2] is given as 11.5 mM.

For `CC(=O)Nc1ccccc1C(=O)O.NC(=O)N1c2ccccc2C=Cc2ccccc21` [[CBZ + 2AcAmBA] (1:1)], the “Scc, solubility of the cocrystal” value [3] was “(2.8 ± 0.1)·10^−3 Mol·L^−1”, the “[CF]eu, eutectic concentration of coformer” value (“[CF]eu … of coformer” for short) [3] was “(7.5 ± 0.1)·10^−3 Mol·L^−1” and the “[CBZ]eu, eutectic concentration of CBZ” value [3] was “(1.10 ± 0.06)·10^−3 Mol·L^−1”. The “Keu, eutectic constant” value [3] was 6.8 ± 0.4, the “dissolution behaviour / solution stability” value ([4]; acetonitrile) was “dissolved incongruently” and the “dissolution behaviour / solution stability” value ([4]; several other tested solvents, including methanol, ethanol, and acetone) was “incongruent behavior”.

In the case of `CC(=O)Nc1cccc(C(=O)O)c1.NC(=O)N1c2ccccc2C=Cc2ccccc21` [[CBZ + 3AcAmBA] (1:1)], the “Ccc,3AcAmBA∙10^2, coformer concentration in equilibrium with cocrystal” value (“Ccc,3AcAmBA∙10^2, coformer concentration” for short) ([1]; methanol, 293.15 K) is reported as 7.0±0.1 mol/l, the “Ccc,CBZ∙10^2, CBZ concentration in equilibrium with cocrystal” value (shortened to “Ccc,CBZ∙10^2, CBZ concentration”) ([1]; methanol, 293.15 K) is reported as 7.00±0.06 mol/l and the “Ccc,3AcAmBA∙10^2, coformer concentration” value ([1]; methanol, 298.15 K) is reported as 8.1±0.1 mol/l. For the same compound, the “Ccc,CBZ∙10^2, CBZ concentration” value ([1]; methanol, 298.15 K) was 8.20±0.10 mol/l, the “Ccc,3AcAmBA∙10^2, coformer concentration” value ([1]; methanol, 303.15 K) was 9.5±0.1 mol/l and the “Ccc,CBZ∙10^2, CBZ concentration” value ([1]; methanol, 303.15 K) was 9.50±0.08 mol/l. The “Ccc,3AcAmBA∙10^2, coformer concentration” value ([1]; methanol, 308.15 K) was 11.1±0.06 mol/l, the “Ccc,CBZ∙10^2, CBZ concentration” value ([1]; methanol, 308.15 K) was 11.00±0.08 mol/l and the “Ccc,3AcAmBA∙10^2, coformer concentration” value ([1]; methanol, 313.15 K) was 12.5±0.07 mol/l. The “Ccc,CBZ∙10^2, CBZ concentration” value ([1]; methanol, 313.15 K) was 12.10±0.08 mol/l, the “Scc, solubility of the cocrystal” value [3] was “(1.30 ± 0.03)·10^−3 Mol·L^−1” and the “[CF]eu … of coformer” value [3] was “(1.75 ± 0.08)·10^−3 Mol·L^−1”. The “[CBZ]eu, eutectic concentration of CBZ” value [3] was “(9.8 ± 0.2)·10^−4 Mol·L^−1”, the “Keu, eutectic constant” value [3] was 1.8 ± 0.1 and the “dissolution behaviour / solution stability” value ([4]; acetonitrile) was “dissolved incongruently”. For the same compound, the “dissolution behaviour / solution stability” value ([4]; methanol) was “dissolve congruently”, the “T·ΔformS” value ([5]; 298.2K) was -0.908 ± 0.12 kcal/mol and the lnKf ([5]; 298.2K) was 1.17 ± 0.02. The ΔformG ([5]; 298.2K) was -0.696 ± 0.012 kcal/mol, the “T·ΔformS” value [5, 6] was -0.908 ± 0.12 kcal/mol and the ΔformG [5, 6] was -0.696 ± 0.012 kcal/mol. The ΔformH ([5]; 298.2K) was -1.6 ± 0.12 kcal/mol, the ΔformH [5, 6] was -1.6 ± 0.12 kcal/mol and the lnKf ([5]; methanol, 293.15 K) was 1.20±0.02. For the same compound, the “∆formG” value ([5]; methanol, 293.15 K) was -0.7 ± 0.012 kcal/mol, the lnKf ([5]; methanol, 298.15 K) was 1.17±0.02 and the “∆formG” value ([5]; methanol, 298.15 K) was -0.696 ± 0.012 kcal/mol. For the same compound, the lnKf ([5]; methanol, 303.15 K) was 1.12±0.02, the “∆formG” value ([5]; methanol, 303.15 K) was -0.676 ± 0.012 kcal/mol and the lnKf ([5]; methanol, 308.15 K) was 1.06±0.015. The “∆formG” value ([5]; methanol, 308.15 K) was -0.65 ± 0.0096 kcal/mol, the lnKf ([5]; methanol, 313.15 K) was 1.04±0.02 and the “∆formG” value ([5]; methanol, 313.15 K) was -0.643 ± 0.0072 kcal/mol.

With `CC(=O)Nc1ccc(C(=O)O)cc1.NC(=O)N1c2ccccc2C=Cc2ccccc21` [[CBZ + 4AcAmBA] (1:1)] the “Ccc,4AcAmBA∙10^2, coformer concentration in equilibrium with cocrystal” value (“Ccc,4AcAmBA∙10^2, coformer concentration” below) ([1]; acetonitrile, 293.15 K) was 0.880±0.016 mol/l, the “Ccc,CBZ∙10^2, CBZ concentration” value ([1]; acetonitrile, 293.15 K) was 0.875±0.014 mol/l and the “Ccc,4AcAmBA∙10^2, coformer concentration” value ([1]; acetonitrile, 298.15 K) was 1.046±0.010 mol/l. The “Ccc,CBZ∙10^2, CBZ concentration” value ([1]; acetonitrile, 298.15 K) was 1.013±0.015 mol/l, the “Ccc,4AcAmBA∙10^2, coformer concentration” value ([1]; acetonitrile, 303.15 K) was 1.222±0.017 mol/l and the “Ccc,CBZ∙10^2, CBZ concentration” value ([1]; acetonitrile, 303.15 K) was 1.198±0.007 mol/l. For the same compound, the “Ccc,4AcAmBA∙10^2, coformer concentration” value ([1]; acetonitrile, 308.15 K) was 1.472±0.008 mol/l, the “Ccc,CBZ∙10^2, CBZ concentration” value ([1]; acetonitrile, 308.15 K) was 1.428±0.009 mol/l and the “Ccc,4AcAmBA∙10^2, coformer concentration” value ([1]; acetonitrile, 313.15 K) was 1.707±0.030 mol/l. The “Ccc,CBZ∙10^2, CBZ concentration” value ([1]; acetonitrile, 313.15 K) was 1.684±0.022 mol/l, the “Scc, solubility of the cocrystal” value [3] was “(0.80 ± 0.02)·10^−3 Mol·L^−1” and the “[CF]eu … of coformer” value [3] was “(6.4 ± 0.2)·10^−4 Mol·L^−1”. For the same compound, the “[CBZ]eu, eutectic concentration of CBZ” value [3] was “(1.00 ± 0.05)·10^−3 Mol·L^−1”, the “Keu, eutectic constant” value [3] was 0.64 ± 0.04 and the “T·ΔformS” value ([5]; 298.2K) was -0.574 ± 0.14 kcal/mol. For the same compound, the lnKf ([5]; 298.2K) was 2.86 ± 0.03, the ΔformG ([5]; 298.2K) was -1.69 ± 0.019 kcal/mol and the “T·ΔformS” value [5, 7] was -0.574 ± 0.14 kcal/mol. For the same compound, the ΔformG [5, 7] was -1.69 ± 0.019 kcal/mol, the ΔformH ([5]; 298.2K) was -2.27 ± 0.14 kcal/mol and the ΔformH [5, 7] was -2.27 ± 0.14 kcal/mol. For the same compound, the lnKf ([5]; acetonitrile, 293.15 K) was 2.93±0.04, the “∆formG” value ([5]; acetonitrile, 293.15 K) was -1.7 ± 0.022 kcal/mol and the lnKf ([5]; acetonitrile, 298.15 K) was 2.86±0.03. For the same compound, the “∆formG” value ([5]; acetonitrile, 298.15 K) was -1.69 ± 0.019 kcal/mol, the lnKf ([5]; acetonitrile, 303.15 K) was 2.82±0.03 and the “∆formG” value ([5]; acetonitrile, 303.15 K) was -1.7 ± 0.017 kcal/mol. The lnKf ([5]; acetonitrile, 308.15 K) was 2.75±0.02, the “∆formG” value ([5]; acetonitrile, 308.15 K) was -1.68 ± 0.012 kcal/mol and the lnKf ([5]; acetonitrile, 313.15 K) was 2.67±0.03. For the same compound, the “∆formG” value ([5]; acetonitrile, 313.15 K) was -1.66 ± 0.019 kcal/mol.

In the case of `NC(=O)N1c2ccccc2C=Cc2ccccc21.O` [carbamazepine hydrate, reference compound], the solubility ([3]; acidic conditions (pH 2.0), 310.2 K) is reported as “(8.30 ± 0.02)·10^−4 mol·l^−1”.
